Results on two molecules are retold here after patent publication US10479786B2, “Protein kinase inhibitors” (Princeton Drug Discovery Inc, priority 2016, dated 2019).

For one assay, the target named is T1, SRC (Homo sapiens, UniProt P12931).
T1 construct: purchased Carna Biosciences, Inc
Kind of assay: Off-chip Mobility Shift Assay, kinase inhibition. The note with it: recombinant SRC; for inhibition at 0.001 µM: at 1 nM; for inhibition at 0.01 µM: at 10 nM. It is filed as biochemical.

Another assay concerns the target T2, LYNa (Homo sapiens, UniProt P07948).
T2 construct: purchased Carna Biosciences, Inc
The assay is described as follows: Off-chip Mobility Shift Assay, kinase inhibition. The class given is biochemical. The settings on record: recombinant LYNa; for inhibition at 0.001 µM: at 1 nM; for inhibition at 0.01 µM: at 10 nM, read-out: inhibition.

In another assay the target is T3, FMS (Homo sapiens, UniProt P07333).
T3 construct: purchased Carna Biosciences, Inc
Kind of assay: Off-chip Mobility Shift Assay, kinase inhibition. The class given is biochemical. The note with it: at 10 nM; recombinant FMS.

For a further assay, the target named is T4, LCK (Homo sapiens, UniProt P06239).
T4 construct: purchased Carna Biosciences, Inc
T4 sequence (P06239 whole entry): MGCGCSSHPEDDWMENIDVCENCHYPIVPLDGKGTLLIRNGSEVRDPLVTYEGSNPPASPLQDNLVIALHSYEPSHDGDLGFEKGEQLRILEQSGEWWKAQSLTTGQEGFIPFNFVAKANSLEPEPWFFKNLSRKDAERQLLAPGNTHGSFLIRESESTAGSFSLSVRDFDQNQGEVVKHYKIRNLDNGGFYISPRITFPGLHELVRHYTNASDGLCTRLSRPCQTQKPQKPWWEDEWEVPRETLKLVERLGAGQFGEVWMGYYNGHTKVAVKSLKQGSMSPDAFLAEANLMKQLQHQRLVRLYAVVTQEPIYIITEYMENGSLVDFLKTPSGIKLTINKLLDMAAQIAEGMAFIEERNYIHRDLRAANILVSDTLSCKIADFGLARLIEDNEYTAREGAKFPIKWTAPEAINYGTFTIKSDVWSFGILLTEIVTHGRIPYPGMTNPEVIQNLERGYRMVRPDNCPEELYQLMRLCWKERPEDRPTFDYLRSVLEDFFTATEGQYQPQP
Kind of assay: Off-chip Mobility Shift Assay, kinase inhibition. The note with it: recombinant LCK; for inhibition at 0.001 µM: at 1 nM; for inhibition at 0.01 µM: at 10 nM. It is filed as biochemical.

Another assay deals with T5, DDR2 (Homo sapiens, UniProt Q16832).
T5 construct: purchased Carna Biosciences, Inc
T5 sequence (Q16832 22-855): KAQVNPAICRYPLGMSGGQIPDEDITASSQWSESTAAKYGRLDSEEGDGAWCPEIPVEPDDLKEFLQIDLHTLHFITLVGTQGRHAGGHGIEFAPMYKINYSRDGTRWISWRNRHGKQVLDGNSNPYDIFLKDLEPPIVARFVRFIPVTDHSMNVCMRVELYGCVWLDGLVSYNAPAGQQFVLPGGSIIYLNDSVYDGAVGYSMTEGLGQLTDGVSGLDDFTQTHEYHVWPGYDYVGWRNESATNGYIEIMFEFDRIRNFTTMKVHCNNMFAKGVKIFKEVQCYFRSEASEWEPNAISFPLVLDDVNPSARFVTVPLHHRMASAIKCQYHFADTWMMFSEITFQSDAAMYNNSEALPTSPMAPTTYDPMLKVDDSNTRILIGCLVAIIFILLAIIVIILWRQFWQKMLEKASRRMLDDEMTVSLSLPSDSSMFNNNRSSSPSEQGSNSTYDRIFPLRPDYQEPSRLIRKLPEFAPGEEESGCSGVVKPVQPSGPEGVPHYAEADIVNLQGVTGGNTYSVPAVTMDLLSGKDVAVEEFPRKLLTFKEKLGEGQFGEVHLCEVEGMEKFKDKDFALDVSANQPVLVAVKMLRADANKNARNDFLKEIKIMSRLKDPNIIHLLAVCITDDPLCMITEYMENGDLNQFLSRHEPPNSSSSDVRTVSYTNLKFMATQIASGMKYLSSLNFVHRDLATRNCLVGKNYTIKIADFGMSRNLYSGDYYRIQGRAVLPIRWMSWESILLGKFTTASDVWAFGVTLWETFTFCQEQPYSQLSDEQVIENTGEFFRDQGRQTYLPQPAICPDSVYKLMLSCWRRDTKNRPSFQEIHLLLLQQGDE
The assay is described as follows: Off-chip Mobility Shift Assay, kinase inhibition. The class given is biochemical. The settings on record: at 10 nM; recombinant DDR2; read-out: inhibition.

The target of another assay is T6, ARG (Homo sapiens, UniProt P42684).
T6 construct: purchased Carna Biosciences, Inc
T6 sequence (P42684 whole entry): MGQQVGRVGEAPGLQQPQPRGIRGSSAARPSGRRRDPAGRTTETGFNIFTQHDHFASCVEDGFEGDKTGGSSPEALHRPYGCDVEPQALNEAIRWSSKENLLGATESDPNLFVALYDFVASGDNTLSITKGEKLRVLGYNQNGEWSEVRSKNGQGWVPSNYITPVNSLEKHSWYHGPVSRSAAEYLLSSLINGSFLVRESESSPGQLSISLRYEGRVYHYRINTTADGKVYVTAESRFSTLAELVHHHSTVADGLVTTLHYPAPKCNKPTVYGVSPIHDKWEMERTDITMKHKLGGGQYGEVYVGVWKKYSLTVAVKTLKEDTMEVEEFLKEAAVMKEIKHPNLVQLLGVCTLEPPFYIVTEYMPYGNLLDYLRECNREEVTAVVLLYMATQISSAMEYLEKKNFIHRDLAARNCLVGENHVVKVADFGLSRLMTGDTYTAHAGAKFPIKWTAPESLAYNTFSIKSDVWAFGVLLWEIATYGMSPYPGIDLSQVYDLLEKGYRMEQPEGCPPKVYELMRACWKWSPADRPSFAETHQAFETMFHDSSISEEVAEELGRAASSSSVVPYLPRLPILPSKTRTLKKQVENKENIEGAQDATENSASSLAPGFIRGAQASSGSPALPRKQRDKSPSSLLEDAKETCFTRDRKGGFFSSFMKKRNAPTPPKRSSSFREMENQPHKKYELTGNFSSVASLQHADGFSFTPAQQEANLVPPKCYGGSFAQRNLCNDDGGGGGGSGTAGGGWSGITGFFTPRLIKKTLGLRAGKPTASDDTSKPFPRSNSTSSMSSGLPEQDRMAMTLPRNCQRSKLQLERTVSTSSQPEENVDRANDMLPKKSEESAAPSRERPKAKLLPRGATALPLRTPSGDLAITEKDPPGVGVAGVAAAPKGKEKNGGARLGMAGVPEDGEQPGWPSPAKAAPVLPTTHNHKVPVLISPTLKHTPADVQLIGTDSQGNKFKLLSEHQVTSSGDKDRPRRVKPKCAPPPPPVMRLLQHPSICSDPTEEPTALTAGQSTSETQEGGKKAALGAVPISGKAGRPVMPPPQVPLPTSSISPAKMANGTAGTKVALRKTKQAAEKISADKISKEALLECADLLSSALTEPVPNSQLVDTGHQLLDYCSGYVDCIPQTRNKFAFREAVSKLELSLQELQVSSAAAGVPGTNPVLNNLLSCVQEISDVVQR
The assay is described as follows: Off-chip Mobility Shift Assay, kinase inhibition. It is filed as biochemical. The settings on record: at 10 nM; recombinant ARG; read-out: inhibition.

In the next assay the target is T7, BTK (Homo sapiens, UniProt Q06187).
T7 construct: purchased Carna Biosciences, Inc
T7 sequence (Q06187 whole entry): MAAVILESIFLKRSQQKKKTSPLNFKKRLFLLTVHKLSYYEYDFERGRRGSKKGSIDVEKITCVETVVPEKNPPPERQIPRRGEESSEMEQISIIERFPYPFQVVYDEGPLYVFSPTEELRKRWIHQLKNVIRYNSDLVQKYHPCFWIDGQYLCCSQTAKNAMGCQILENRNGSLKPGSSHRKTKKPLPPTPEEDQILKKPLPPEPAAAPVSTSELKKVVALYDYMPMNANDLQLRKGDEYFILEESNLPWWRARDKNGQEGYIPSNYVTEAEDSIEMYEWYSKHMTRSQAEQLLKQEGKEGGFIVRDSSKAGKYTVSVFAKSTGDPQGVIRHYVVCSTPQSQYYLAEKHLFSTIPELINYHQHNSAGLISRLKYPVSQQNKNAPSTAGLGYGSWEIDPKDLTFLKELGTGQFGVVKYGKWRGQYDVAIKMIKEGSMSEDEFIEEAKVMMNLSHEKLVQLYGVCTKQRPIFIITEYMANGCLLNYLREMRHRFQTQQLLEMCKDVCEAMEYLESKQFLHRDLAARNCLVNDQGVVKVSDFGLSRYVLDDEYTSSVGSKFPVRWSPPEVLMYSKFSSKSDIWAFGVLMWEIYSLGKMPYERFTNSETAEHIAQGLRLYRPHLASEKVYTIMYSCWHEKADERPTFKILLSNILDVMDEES
The assay is described as follows: Off-chip Mobility Shift Assay, kinase inhibition. The note with it: recombinant BTK; for inhibition at 0.001 µM: at 1 nM; for inhibition at 0.01 µM: at 10 nM. It is filed as biochemical.

The target in the next assay is T8, BLK (Homo sapiens, UniProt P51451).
T8 construct: purchased Carna Biosciences, Inc
T8 sequence (P51451 whole entry): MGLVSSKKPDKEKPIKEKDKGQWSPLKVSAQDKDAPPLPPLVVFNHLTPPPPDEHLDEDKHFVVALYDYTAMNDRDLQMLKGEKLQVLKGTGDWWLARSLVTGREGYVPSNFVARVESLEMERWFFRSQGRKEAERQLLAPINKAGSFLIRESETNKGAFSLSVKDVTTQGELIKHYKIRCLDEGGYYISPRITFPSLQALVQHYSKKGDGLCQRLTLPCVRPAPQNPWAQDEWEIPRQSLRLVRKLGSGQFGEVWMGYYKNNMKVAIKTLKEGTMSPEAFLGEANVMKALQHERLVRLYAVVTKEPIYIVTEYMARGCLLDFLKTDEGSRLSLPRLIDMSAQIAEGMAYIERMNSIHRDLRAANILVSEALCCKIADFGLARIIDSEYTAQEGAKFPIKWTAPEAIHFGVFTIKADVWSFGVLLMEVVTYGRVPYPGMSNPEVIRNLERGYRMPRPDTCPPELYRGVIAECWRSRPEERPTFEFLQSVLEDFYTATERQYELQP
Kind of assay: Off-chip Mobility Shift Assay, kinase inhibition. It is filed as biochemical. The note with it: at 10 nM; recombinant BLK.

In another assay the target is T9, YES (Homo sapiens, UniProt P07947).
T9 construct: purchased Carna Biosciences, Inc
T9 sequence (P07947 whole entry): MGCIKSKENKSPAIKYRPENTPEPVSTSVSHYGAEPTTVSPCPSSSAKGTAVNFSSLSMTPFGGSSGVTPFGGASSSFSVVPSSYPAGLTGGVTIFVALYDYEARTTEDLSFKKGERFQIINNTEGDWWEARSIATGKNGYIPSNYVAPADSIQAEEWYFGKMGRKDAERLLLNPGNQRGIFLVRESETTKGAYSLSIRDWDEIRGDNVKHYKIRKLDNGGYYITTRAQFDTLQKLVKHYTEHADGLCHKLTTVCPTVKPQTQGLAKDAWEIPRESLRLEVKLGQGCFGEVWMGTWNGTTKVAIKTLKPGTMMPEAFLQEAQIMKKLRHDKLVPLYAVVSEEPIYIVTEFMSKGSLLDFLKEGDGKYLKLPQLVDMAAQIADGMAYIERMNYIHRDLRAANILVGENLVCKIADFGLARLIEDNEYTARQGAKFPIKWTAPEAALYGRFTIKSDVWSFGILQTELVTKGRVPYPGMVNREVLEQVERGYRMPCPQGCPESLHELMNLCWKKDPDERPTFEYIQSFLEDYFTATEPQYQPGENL
Kind of assay: Off-chip Mobility Shift Assay, kinase inhibition. The class given is biochemical. The settings on record: recombinant YES; for inhibition at 0.001 µM: at 1 nM; for inhibition at 0.01 µM: at 10 nM.

Assay [1] relates to battery of selected protein kinases. Kind of assay: In vitro screen of a battery of selected protein kinases (summary statement). It is filed as biochemical. The note with it: BTK, BMX, ABL, ABL(E255K), SRC, ACK, ARG, BLK, DDR2, EPHA, FGR, FMS, FRK, FYN, HCK, LCK, LYN, PDGFRα, PDGFRβ, YES, PIK3CA/PIK3R1, among others.
The target of another assay is T10, PDGFRα (Homo sapiens, UniProt P16234).
T10 construct: purchased Carna Biosciences, Inc
Kind of assay: Off-chip Mobility Shift Assay, kinase inhibition. It is filed as biochemical. The settings on record: at 10 nM; recombinant PDGFRα; read-out: inhibition.

Another assay has as its target T11, BMX (Homo sapiens, UniProt P51813).
T11 construct: purchased Carna Biosciences, Inc
T11 sequence (P51813 1-675): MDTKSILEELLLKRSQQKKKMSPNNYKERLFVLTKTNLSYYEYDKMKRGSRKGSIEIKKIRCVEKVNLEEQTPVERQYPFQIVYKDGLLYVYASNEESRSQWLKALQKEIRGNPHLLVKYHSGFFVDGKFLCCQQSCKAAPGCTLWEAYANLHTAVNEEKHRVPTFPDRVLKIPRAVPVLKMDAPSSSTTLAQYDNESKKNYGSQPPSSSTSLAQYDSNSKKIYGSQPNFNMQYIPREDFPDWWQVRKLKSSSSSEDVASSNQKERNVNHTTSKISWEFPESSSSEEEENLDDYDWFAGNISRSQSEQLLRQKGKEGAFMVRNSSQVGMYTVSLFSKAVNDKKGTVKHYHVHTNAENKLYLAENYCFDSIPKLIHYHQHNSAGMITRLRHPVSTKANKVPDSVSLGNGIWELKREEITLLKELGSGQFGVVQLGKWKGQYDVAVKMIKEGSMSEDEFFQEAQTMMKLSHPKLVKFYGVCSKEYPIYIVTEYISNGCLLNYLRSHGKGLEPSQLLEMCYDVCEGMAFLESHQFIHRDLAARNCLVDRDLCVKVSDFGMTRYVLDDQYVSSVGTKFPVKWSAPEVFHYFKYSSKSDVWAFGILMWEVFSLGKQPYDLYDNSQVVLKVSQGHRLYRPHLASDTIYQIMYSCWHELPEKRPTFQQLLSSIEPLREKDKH
Kind of assay: Off-chip Mobility Shift Assay, kinase inhibition. The class given is biochemical. The settings on record: recombinant BMX; for inhibition at 0.001 µM: at 1 nM; for inhibition at 0.01 µM: at 10 nM.

A further assay deals with T12, FGR (Homo sapiens, UniProt P09769).
T12 construct: purchased Carna Biosciences, Inc
T12 sequence (P09769 whole entry): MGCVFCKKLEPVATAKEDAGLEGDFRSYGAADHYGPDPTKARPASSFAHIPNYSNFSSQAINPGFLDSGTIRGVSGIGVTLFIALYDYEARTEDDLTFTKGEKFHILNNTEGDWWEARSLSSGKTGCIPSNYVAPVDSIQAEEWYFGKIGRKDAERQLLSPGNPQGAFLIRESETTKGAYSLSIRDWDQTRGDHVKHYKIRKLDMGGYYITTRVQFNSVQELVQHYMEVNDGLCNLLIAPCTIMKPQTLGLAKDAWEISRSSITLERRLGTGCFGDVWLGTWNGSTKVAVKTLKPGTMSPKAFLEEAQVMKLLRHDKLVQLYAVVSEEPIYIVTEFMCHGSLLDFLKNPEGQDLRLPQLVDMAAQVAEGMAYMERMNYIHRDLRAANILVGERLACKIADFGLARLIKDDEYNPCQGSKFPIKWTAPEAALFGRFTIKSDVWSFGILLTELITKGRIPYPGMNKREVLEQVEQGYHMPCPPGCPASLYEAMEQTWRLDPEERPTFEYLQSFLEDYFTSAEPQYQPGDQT
Kind of assay: Off-chip Mobility Shift Assay, kinase inhibition. The note with it: at 10 nM; recombinant FGR; read-out: inhibition. It is filed as biochemical.

In a further assay the test system is SU-DHL-4. Kind of assay: Cell inhibition assay (PrestoBlue, 48 h). The class given is cell-based. The note with it: Homo sapiens, SU-DHL-4, 48 h, SU-DHL-4 diffuse large B-cell lymphoma cells, read-out: IC50, inhibition of growth.
A further assay concerns the target T13, PDGFRβ (Homo sapiens, UniProt P09619).
T13 construct: purchased Carna Biosciences, Inc
The assay is described as follows: Off-chip Mobility Shift Assay, kinase inhibition. It is filed as biochemical. The settings on record: at 10 nM; recombinant PDGFRβ; read-out: inhibition.

T1 sequence (P12931 whole entry): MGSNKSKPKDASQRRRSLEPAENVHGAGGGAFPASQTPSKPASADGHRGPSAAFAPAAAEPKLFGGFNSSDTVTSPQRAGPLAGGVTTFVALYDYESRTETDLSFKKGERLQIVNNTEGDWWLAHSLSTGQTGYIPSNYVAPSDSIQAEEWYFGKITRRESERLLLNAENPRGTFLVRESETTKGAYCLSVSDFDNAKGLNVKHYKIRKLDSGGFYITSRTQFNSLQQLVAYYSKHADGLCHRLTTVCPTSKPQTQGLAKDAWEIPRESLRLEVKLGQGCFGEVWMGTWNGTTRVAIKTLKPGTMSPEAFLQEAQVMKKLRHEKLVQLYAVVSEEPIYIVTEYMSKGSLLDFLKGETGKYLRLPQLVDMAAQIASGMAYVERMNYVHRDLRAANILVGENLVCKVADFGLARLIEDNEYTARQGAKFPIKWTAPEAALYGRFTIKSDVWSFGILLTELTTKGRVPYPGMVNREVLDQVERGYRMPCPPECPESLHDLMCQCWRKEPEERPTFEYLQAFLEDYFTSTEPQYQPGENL
T2 sequence (P07948 whole entry): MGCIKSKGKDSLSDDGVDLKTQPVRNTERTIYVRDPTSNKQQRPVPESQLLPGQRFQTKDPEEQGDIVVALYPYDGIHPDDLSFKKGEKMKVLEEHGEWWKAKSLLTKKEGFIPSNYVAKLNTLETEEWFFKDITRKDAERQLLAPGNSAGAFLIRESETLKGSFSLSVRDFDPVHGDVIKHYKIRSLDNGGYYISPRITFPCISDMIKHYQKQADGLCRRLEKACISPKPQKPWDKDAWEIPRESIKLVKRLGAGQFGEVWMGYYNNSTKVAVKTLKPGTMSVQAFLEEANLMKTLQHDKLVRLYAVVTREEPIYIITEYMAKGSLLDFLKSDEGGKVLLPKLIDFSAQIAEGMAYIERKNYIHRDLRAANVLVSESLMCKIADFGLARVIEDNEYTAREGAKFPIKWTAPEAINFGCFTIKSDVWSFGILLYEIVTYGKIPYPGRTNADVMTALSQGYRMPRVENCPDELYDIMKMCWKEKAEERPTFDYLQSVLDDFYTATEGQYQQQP

`Cc1nc(Nc2ncc(C(=O)Nc3c(C)cccc3Cl)s2)cc(N2CC[C@H](N)C2)n1` [Compound XII, N-(2-chloro-6-methylphenyl)-2-[[2-methyl-6-((S)-3-aminopyrrolidin-1-yl)pyrimidin-4-yl]amino]thiazole-5-carboxamide]: the inhibition at 0.001 µM at SRC, on LYNa, at LCK, on BTK, at YES and at BMX was more than 50% throughout. Besides, the inhibition at 0.01 µM on SRC, on LYNa, on FMS, at LCK, at DDR2 and on ARG was more than 50% in each case. In addition, the inhibition at 0.01 µM at BTK, at BLK, at YES, at PDGFRα, at BMX and at FGR was more than 50% each time. For the same molecule, the inhibition at 0.01 µM at PDGFRβ was more than 50%. Further, the “activity to inhibit kinases” value in assay [1] is on record as “potent activity”. For the same molecule, the concentration for half-maximal inhibition (IC50) in the assay on SU-DHL-4 was less than 20 nM.

Regarding `Cc1nc(Nc2ncc(C(=O)Nc3c(C)cccc3Cl)s2)cc(N2CC[C@@H](N)C2)n1` [Compound XIII, N-(2-chloro-6-methylphenyl)-2-[[2-methyl-6-((R)-3-aminopyrrolidin-1-yl)pyrimidin-4-yl]amino]thiazole-5-carboxamide], the inhibition at 0.001 µM on SRC, on LYNa, on LCK, on BTK, at YES and at BMX was more than 50% throughout. Further, the inhibition at 0.01 µM at SRC, on LYNa, on FMS, on LCK, at DDR2 and on ARG was more than 50% each time. Further, the inhibition at 0.01 µM at BTK, on BLK, on YES, on PDGFRα, at BMX and at FGR was more than 50% throughout. Further, the inhibition at 0.01 µM at PDGFRβ is more than 50%. For the same molecule, the “activity to inhibit kinases” value in assay [1] was “potent activity”. The IC50 in the assay with SU-DHL-4 is less than 20 nM.

Usually inhibition stands for how much of the control response was suppressed. One may read the IC50 as the concentration needed to halve the response being measured.
